According to ChEMBL document CHEMBL1130294, “Subsite requirements for peptide aldehyde inhibitors of human calpain I” (Bioorg Med Chem Lett, 1997):
Non-standard residues stand in square brackets, D forms with d. Residues, ends and D or L forms follow the SMILES beside them. *: point of attachment. tBuAla = CC(C)(C)C[C@H](N)C(=O)O; Tic = O=C(O)[C@@H]1Cc2ccccc2CN1; Cha = N[C@@H](CC1CCCCC1)C(=O)O; Tle = CC(C)(C)[C@H](N)C(=O)O; Nle = CCCC[C@H](N)C(=O)O; Abu = CC[C@H](N)C(=O)O; Cbz = O=C(OCc1ccccc1)*; Boc = CC(C)(C)OC(=O)*; Bn = c1ccc(C*)cc1; OtBu = CC(C)(C)O*; tBu = CC(C)(C)*

The compounds below were run against T1, Calpain-1 catalytic subunit (Homo sapiens, UniProt P07384) (assay: Inhibitory activity evaluated against recombinant human calpain 1).
T1 sequence (P07384 whole entry): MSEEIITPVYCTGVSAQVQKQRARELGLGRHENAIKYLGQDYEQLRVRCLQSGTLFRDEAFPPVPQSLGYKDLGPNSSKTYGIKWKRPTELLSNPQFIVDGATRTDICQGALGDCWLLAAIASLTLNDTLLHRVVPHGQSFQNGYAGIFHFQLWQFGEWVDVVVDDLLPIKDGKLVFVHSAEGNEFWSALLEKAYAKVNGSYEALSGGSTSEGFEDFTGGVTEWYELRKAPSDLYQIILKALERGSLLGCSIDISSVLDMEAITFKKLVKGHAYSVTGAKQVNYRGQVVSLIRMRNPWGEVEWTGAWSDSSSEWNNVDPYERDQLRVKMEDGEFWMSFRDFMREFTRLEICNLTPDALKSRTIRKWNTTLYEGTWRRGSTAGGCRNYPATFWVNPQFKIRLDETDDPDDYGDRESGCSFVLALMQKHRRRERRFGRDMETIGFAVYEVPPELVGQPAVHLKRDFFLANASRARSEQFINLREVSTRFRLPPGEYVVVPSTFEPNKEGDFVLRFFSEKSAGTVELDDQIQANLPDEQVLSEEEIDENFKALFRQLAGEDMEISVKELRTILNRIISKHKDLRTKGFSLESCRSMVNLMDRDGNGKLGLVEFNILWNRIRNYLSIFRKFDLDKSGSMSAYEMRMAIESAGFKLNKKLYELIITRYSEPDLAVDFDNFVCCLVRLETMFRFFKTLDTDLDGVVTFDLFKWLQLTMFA

| Structure (SMILES) | IC50 [nM] |
| --- | --- |
| CC(C)C[C@@H](C=O)NC(=O)CNC(=O)[C@H](CC(C)C)NC(=O)OCc1ccccc1 (Cbz-Leu-Gly-Leu-aldehyde) | ~10000 |
| CC(C)C[C@@H](C=O)NC(=O)[C@H](CC(C)(C)C)NC(=O)OCc1ccccc1 (Cbz-[tBuAla]-Leu-aldehyde) | 140 |
| CC(=O)N[C@@H](CC(C)C)C(=O)N[C@@H](CC(C)C)C(=O)N[C@H](C=O)CCCNC(=N)N | 72 |
| CC(C)C[C@@H](C=O)NC(=O)[C@H](Cc1ccccc1)NC(=O)OCc1ccccc1 (Cbz-Phe-Leu-aldehyde) | 230 |
| CC(=O)N[C@@H](CC(C)C)C(=O)N[C@@H](CC(C)C)C(=O)N[C@H](C=O)CCC(=O)OC(C)(C)C (Ac-Leu-Leu-Glu(OtBu)-aldehyde) | 1100 |
| CC(C)C[C@@H](C=O)NC(=O)[C@H](CC1CCCCC1)NC(=O)OCc1ccccc1 (Cbz-[Cha]-Leu-aldehyde) | 580 |
| CC(C)C[C@@H](C=O)NC(=O)[C@H](CC(C)C)N(C)C(=O)OCc1ccccc1 | > 10000 |
| CC(C)C[C@@H](C=O)NC(=O)CCNC(=O)OCc1ccccc1 | > 10000 |
| CC(C)C[C@H](NC(=O)OCc1ccccc1)C(=O)N[C@H](CC=O)Cc1ccccc1 | > 1000 |
| CC(C)C[C@@H](C=O)NC(=O)[C@H](Cc1c[nH]c2ccccc12)NC(=O)OCc1ccccc1 (Cbz-Trp-Leu-aldehyde) | 120 |
| CC(C)C[C@@H](C=O)NC(=O)[C@H](CO)NC(=O)OCc1ccccc1 (Cbz-Ser-Leu-aldehyde) | 530 |
| CC(C)C[C@@H](C=O)NC(=O)[C@H](CCCCN)NC(=O)[C@H](CC(C)C)NC(=O)OCc1ccccc1 (Cbz-Leu-Lys-Leu-aldehyde) | ~10000 |
| CC(C)C[C@@H](C=O)NC(=O)[C@H](Cc1ccc(O)cc1)NC(=O)OCc1ccccc1 (Cbz-Tyr-Leu-aldehyde) | > 1000 |
| CC(C)C[C@@H](C=O)NC(=O)[C@H](CC(C)C)NC(=O)c1ccccc1C(=O)O | > 1000 |
| CC(=O)N[C@@H](CC(C)C)C(=O)N[C@@H](CC(C)C)C(=O)N[C@H](C=O)Cc1c[nH]c2ccccc12 (Ac-Leu-Leu-Trp-aldehyde) | 150 |
| CC(=O)N[C@@H](CC(C)C)C(=O)N[C@H](C=O)CC(C)C | 130 |
| CC(C)C[C@H](NC(=O)OCc1ccccc1)C(=O)N(C)[C@H](C=O)CC(C)C | > 1000 |
| CC(=O)N[C@H](C(=O)N[C@@H](Cc1ccccc1)C(=O)N[C@H](C=O)CC(C)C)C(C)C (Ac-Val-Phe-Leu-aldehyde) | 110 |
| CC(C)C[C@H](NC(=O)OCc1ccccc1)C(=O)NCCC=O | > 10000 |
| CC(C)C[C@@H](C=O)NC(=O)[C@@H](NC(=O)OCc1ccccc1)[C@H](C)O | 190 |
| CC(C)C[C@@H](C=O)NC(=O)[C@H](CC(C)C)NC(=O)/C=C\C(=O)O | ~10000 |
| CC(=O)N[C@@H](CC(C)C)C(=O)N[C@@H](CC(C)C)C(=O)NCC=O (Ac-Leu-Leu-Gly-aldehyde) | ~1000 |
| CC(C)C[C@@H](C=O)NC(=O)[C@H](Cc1ccccc1)NC(=O)[C@H](CC(C)C)NC(=O)OCc1ccccc1 (Cbz-Leu-Phe-Leu-aldehyde) | 68 |
| CC(C)C[C@H](C=O)NC(=O)OCc1ccccc1 | 10000 |
| CC(C)C[C@@H](C=O)NC(=O)[C@H](CCC(=O)O)NC(=O)[C@H](CC(C)C)NC(=O)OCc1ccccc1 (Cbz-Leu-Glu-Leu-aldehyde) | 1200 |
| CC(=O)N[C@@H](CC(C)C)C(=O)N[C@@H](CC(C)C)C(=O)N[C@@H](C=O)CC(C)C | 62 |
| CC(C)C[C@@H](C=O)NC(=O)[C@H](C)NC(=O)[C@H](CC(C)C)NC(=O)OCc1ccccc1 (Cbz-Leu-Ala-Leu-aldehyde) | 90 |
| CC(C)C[C@H](NC(=O)OCc1ccccc1)C(=O)N[C@@H](C)C=O (Cbz-Leu-Ala-aldehyde) | 120 |

These reach a lower IC50. Values come first.

| IC50 [nM] | Structure (SMILES) |
| --- | --- |
| 45 | CC(C)C[C@@H](C=O)NC(=O)[C@H](Cc1c[nH]c2ccccc12)NC(=O)[C@H](CC(C)C)NC(=O)OCc1ccccc1 (Cbz-Leu-Trp-Leu-aldehyde) |
| 15 | CC(C)C[C@@H](C=O)NC(=O)[C@H](CC(C)C)NC(=O)[C@@H]1Cc2ccccc2CN1C(=O)OCc1ccccc1 (Cbz-[Tic]-Leu-Leu-aldehyde) |
| 17 | CC(C)C[C@@H](C=O)NC(=O)[C@H](CC(C)C)NC(=O)[C@H](CC(C)C)NC(=O)[C@H](Cc1c[nH]cn1)NC(=O)OCc1ccccc1 (Cbz-HLLL-aldehyde) |
| 11 | CC(C)C[C@@H](C=O)NC(=O)[C@H](CC(C)C)NC(=O)[C@H](Cc1ccccc1)NC(=O)OCc1ccccc1 (Cbz-Phe-Leu-Leu-aldehyde) |
| 15 | CC(C)C[C@H](NC(=O)OCc1ccccc1)C(=O)N[C@H](C=O)Cc1cnc[nH]1 (Cbz-Leu-His-aldehyde) |
| 35 | CC(C)C[C@H](NC(=O)OCc1ccccc1)C(=O)N[C@H](C=O)C(C)(C)C (Cbz-Leu-[Tle]-aldehyde) |
| 19 | CC(C)C[C@@H](C=O)NC(=O)[C@H](CC(C)C)NC(=O)[C@H](CC(C)C)NC(=O)OCc1ccccc1 (Cbz-Leu-Leu-Leu-aldehyde) |
| 41 | CC[C@H](C)[C@H](NC(=O)OCc1ccccc1)C(=O)N[C@H](C=O)CC(C)C (Cbz-Ile-Leu-aldehyde) |
| 40 | CC(C)C[C@@H](C=O)NC(=O)[C@H](CC(C)C)NC(=O)[C@H](CCC(=O)O)NC(=O)OCc1ccccc1 (Cbz-Glu-Leu-Leu-aldehyde) |
| 33 | CCCC[C@H](NC(=O)OCc1ccccc1)C(=O)N[C@H](C=O)CC(C)C |
| 18 | CC(=O)N[C@@H](C)C(=O)N[C@@H](CC(C)C)C(=O)N[C@H](C=O)CC(C)C (Ac-Ala-Leu-Leu-aldehyde) |
| 33 | CSCC[C@@H](C=O)NC(=O)[C@H](CC(C)C)NC(=O)OCc1ccccc1 (Cbz-Leu-Met-aldehyde) |
| 8 | CC(C)C[C@@H](C=O)NC(=O)[C@H](CC(C)C)NC(=O)[C@H](Cc1ccc(O)cc1)NC(=O)OCc1ccccc1 (Cbz-Tyr-Leu-Leu-aldehyde) |
| 11 | CC(C)C[C@@H](C=O)NC(=O)[C@H](CC(C)C)NC(=O)OCC1c2ccccc2-c2ccccc21 |
| 20 | CC(C)C[C@@H](C=O)NC(=O)[C@H](CC(C)C)NC(=O)[C@H](CCCCN)NC(=O)OCc1ccccc1 (Cbz-Lys-Leu-Leu-aldehyde) |
| 5 | CCCC[C@@H](C=O)NC(=O)[C@H](CC(C)C)NC(=O)OCc1ccccc1 [CALPEPTIN] |
| 29 | CC(C)C[C@@H](C=O)NC(=O)[C@@H](NC(=O)OCc1ccccc1)C(C)C (Cbz-Val-Leu-aldehyde) |
| 10 | CC[C@@H](C=O)NC(=O)[C@H](CC(C)C)NC(=O)OCc1ccccc1 (Cbz-Leu-[Abu]-aldehyde) |

| IC50 [nM] | Structure (SMILES) |
| --- | --- |
| 8 | CC(C)C[C@@H](C=O)NC(=O)[C@H](CC(C)C)NC(=O)OCc1ccccc1 |
| 12 | CC(C)C[C@@H](C=O)NC(=O)[C@H](CC(C)C)NC(=O)[C@H](COC(C)(C)C)NC(=O)OCc1ccccc1 (Cbz-Ser(tBu)-Leu-Leu-aldehyde) |
| 8 | CC(C)C[C@@H](C=O)NC(=O)[C@H](CC(C)C)NC(=O)OCc1ccc([N+](=O)[O-])cc1 |
| 10 | CC(C)C[C@@H](C=O)NC(=O)[C@H](CC(C)C)NC(=O)[C@H](CC(C)C)NC(=O)c1ccc2ccccc2c1 |
| 25 | CC(C)C[C@@H](C=O)NC(=O)[C@H](CC(C)C)NC(=O)[C@H](CCC(=O)OC(C)(C)C)NC(=O)OCc1ccccc1 (Cbz-Glu(OtBu)-Leu-Leu-aldehyde) |
| 6 | CC(C)C[C@@H](C=O)NC(=O)[C@H](CC(C)C)NC(=O)[C@H](CC(C)C)NC(=O)[C@H](C)NC(=O)OCc1ccccc1 (Cbz-ALLL-aldehyde) |
| 5 | CC(C)C[C@@H](C=O)NC(=O)[C@H](CC(C)C)NC(=O)[C@H](C)NC(=O)OCc1ccccc1 (Cbz-Ala-Leu-Leu-aldehyde) |
| 4 | CC(C)C[C@@H](C=O)NC(=O)[C@@H](NC(=O)OCc1ccccc1)C(C)(C)C (Cbz-[Tle]-Leu-aldehyde) |
| 15 | CC(=O)N[C@@H](CC(C)C)C(=O)N[C@@H](CC(C)C)C(=O)N[C@H](C=O)CC(C)C |
| 12 | CCCC[C@@H](C=O)NC(=O)[C@H](CC(C)C)NC(=O)[C@H](CC(C)C)NC(C)=O (Ac-Leu-Leu-[Nle]-aldehyde) |
| 32 | CC(=O)N[C@@H](CC(C)C)C(=O)N[C@@H](CC(C)C)C(=O)N[C@H](C=O)Cc1ccccc1 (Ac-Leu-Leu-Phe-aldehyde) |
| 4 | CC(C)C[C@H](NC(=O)OCc1ccccc1)C(=O)N[C@H](C=O)C(C)C (Cbz-Leu-Val-aldehyde) |
| 33 | CC(=O)N[C@@H](CC(C)C)C(=O)N[C@@H](CC(C)C)C(=O)N[C@H](C=O)CCCCNC(=O)OC(C)(C)C (Ac-Leu-Leu-Lys(Boc)-aldehyde) |
| 23 | CSCCC(C=O)NC(=O)C(CC(C)C)NC(=O)[C@H](CC(C)C)NC(C)=O (single isomer, unassigned) |
| 10 | CC(C)C[C@H](NC(=O)OCc1ccccc1)C(=O)N[C@H](C=O)Cc1ccccc1 (Cbz-Leu-Phe-aldehyde) |
| 31 | CC(C)C[C@@H](C=O)NC(=O)[C@H](Cc1ccccc1)NC(=O)[C@@H](NC(=O)OCc1ccccc1)C(C)C (Cbz-Val-Phe-Leu-aldehyde) |
| 7 | CC(C)C[C@H](NC(=O)OCc1ccccc1)C(=O)N[C@H](C=O)Cc1ccc(OCc2ccccc2)cc1 (Cbz-Leu-Tyr(Bn)-aldehyde) |
| 11 | CC(C)C[C@H](NC(=O)OCc1ccccc1)C(=O)N[C@H](C=O)CC1CCCCC1 (Cbz-Leu-[Cha]-aldehyde) |
